Laboratory results published in paper PMC9944328 (Nature Communications, 2023).
“Also recorded” adds a separate entry of the source.

Tests used:
[1] = system: SSTR1–5; test: Gi signaling of SSTR1–5, cAMP inhibition, HEK293; assay type: cell-based, human; settings: SSTR2 versus other SSTRs
Description: The levels of the intracellular 3′, 5′-cyclic AMP (cAMP) were measured by the GloSensor cAMP assay (Promega) as described in the previous studies[28],[41] which has been widely used. The human full-length SSTRs and mutants were cloned into the pcDNA3.1+ vector with a HA signal sequence followed by a Flag tag at the N-terminus. […] Cells were then co-transfected with SSTR wild-type or mutants and GloSensor plasmids. After 24 h of transfection, the cells were dissociated with TrypLE™ Express Enzyme (1X) (Thermo Fisher Scientific) and collected by centrifugation at 500 × g for 5 min. Then the collected cells were suspended in Hank’s balanced salt solution [HBSS (Thermo Fisher Scientific)] supplemented with […] potassium salt solution (YEASEN), and then the suspension cells were seeded into 96-well plates with 90 μl/well. After incubating at room temperature for 40 min, 5 μM forskolin and ligands diluted in HBSS were added to each well and the plates were incubated at room temperature for 15 min. […] signals were measured using the Synergy H1 microplate reader (BioTek) and the data presented are means of at least three independent experiments.

[2] = molecular target: T1, SSTR2 mutants (Homo sapiens, UniProt P30874, N276A); test: Bystander BRET endosomal trafficking (β-arrestin 1-Nluc, FYVE-mVenus), HEK293 (SSTR2 mutants); settings: best-fit value;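 also: Read-out is the BRET ratio between Nluc-fused β-arrestin 1 and the early endosome marker FYVE-mVenus, measured after ligand addition with coelenterazine h as substrate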;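 as to Bottom: percent of maximal wild-type response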
T1 sequence (P30874 whole entry N276A, the tested form may be a part): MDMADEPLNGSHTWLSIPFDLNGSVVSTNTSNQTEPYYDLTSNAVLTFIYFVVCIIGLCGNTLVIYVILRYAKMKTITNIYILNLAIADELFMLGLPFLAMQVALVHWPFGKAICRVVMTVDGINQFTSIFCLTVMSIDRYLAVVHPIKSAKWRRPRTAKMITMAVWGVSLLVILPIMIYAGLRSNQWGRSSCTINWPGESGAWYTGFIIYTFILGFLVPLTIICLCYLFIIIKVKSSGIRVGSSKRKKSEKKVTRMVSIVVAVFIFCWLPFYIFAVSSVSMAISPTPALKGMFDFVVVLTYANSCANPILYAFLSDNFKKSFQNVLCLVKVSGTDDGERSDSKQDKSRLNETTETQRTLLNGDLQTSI

[3] = molecular target: SSTR2 mutants (Homo sapiens, UniProt P30874, F294A); test: as above; settings: for Bottom: best-fit value
Sequence of SSTR2 mutants (Homo sapiens, UniProt P30874, F294A) (P30874 whole entry F294A): as the sequence (P30874 whole entry N276A, the tested form may be a part) above, with A276N, F294A counted along it

[4] = molecular target: T1, SSTR2 mutants
[5] = system: SSTR2 Y302A mutant; set-up: method as in earlier work; settings: Y302(7.43)A; ref 20 of peer review file (Zhao, W. et al., 2022); cited from earlier work

Structure (SMILES) | Subtype selectivity [1] | Bottom ([2]; N276A-1 (run 1)) | Bottom ([2]; N276A-2 (run 2)) | Bottom ([2]; N276A-3 (run 3)) | EC50 [3] [nM] | Emax ([3]; HEK293) [%] | Bottom ([3]; F294A-1 (run 1)) | Bottom ([3]; F294A-2 (run 2)) | Bottom ([3]; F294A-3 (run 3)) | Emax [4] [%] | Binding to mutant [5]
N#Cc1cccc(-c2ccc3ncc(-c4cc(F)cc(F)c4)c(N4CCC(N)CC4)c3c2)c1O [paltusotine] | highly selective agonist of SSTR2 relative to other SSTR subtypes; also recorded: more potent selectivity for SSTR2; also recorded: higher selectivity and efficacy towards SSTR2 relative to other group 2 SSTRs | 0.05559 | -0.1543 | -2.441 | 2094 ± 1.18 | 95.1 ± 4.53 | 0.7189 | -2.342 | -0.7874 | 81 ± 1.71 | –
C[C@@H](O)[C@@H]1NC(=O)[C@H](CCCCN)NC(=O)[C@@H](Cc2c[nH]c3ccccc23)NC(=O)[C@H](Cc2ccccc2)NC(=O)[C@@H](NC(=O)[C@H](N)Cc2ccccc2)CSSC[C@@H](C(=O)N[C@H](CO)[C@@H](C)O)NC1=O [octreotide] | – | – | – | – | – | – | – | – | – | – | nearly abolished the binding
